# Data published in patent US6277383A, “Ryegrass pollen allergen” (University of Melbourne, priority 1995, dated 2001).
# Assays:
# [1] = system: MAb 40.1; assay: Antibody screening of lambda-gt 11 cDNA clones: binding of MAb 40.1; parameters: key: ++: strongest binding; -: no binding; conditions: protein expressed by lambda-gt 11 clone in E. coli Y1090, plaque lift
# Procedure: (§1) Poly (A+) mRNA isolated from mature rye grass pollen by the phenol method ([…] and Michaels, (1984) Plant Mol. Biol. Rep., 2:24-28) was used to construct a cDNA library in the vector lambda-gt 11. The library was then screened with antibody probes to detect sequences expressing Group I proteins. E. coli […] transfected with 3×10^4 recombinant phages were plated and incubated at 42° C. for 3 h. The plates were overlaid with a dry 132 mm nitrocellulose (NC) filter previously soaked in 10 mm IPTG and transferred to 37° C. After incubation for 3 h the filters were carefully peeled off and incubated in 20 ml per filter of MTBS (10% w/v non-fat milk powder, 50 mm Tris-HCI, pH 7.6, 150 mM Nacl) for 30 min. at room temperature. A second set of NC filters was placed on phage plates and after incubating for 3 h were treated as above. Both sets of NC filters were tested for binding of MAb 40.1 to plaques by the method described in Huynh et al. (1985) In: DNA Cloning, a practical approach, Glover, D. M. (ed.) Vol. 1, pp. 49-78, IRL Press, Oxford, England. The antibody positive plaques were picked, purified, then replated and tested for binding to probes. The positive clones were plaque-purified and tested for IgE binding using sera from grass pollen-allergic subjects. Eighteen clones were selected as encoding proteins recognized by both Lol p I-specific MAbs and IgE antibodies (Table 1). The largest of the cDNA clones, 1.2kb in size, that expressed rye-grass allergenic protein was initially selected for further characterization and sequencing, and designated clone lambda-12R (FIG. 1a).
# [2] = system: IgE from sera of allergic indivs.; assay: Screening of lambda-gt 11 cDNA clones for IgE binding; parameters: species or system human; key: ++: strongest binding; -: no binding; conditions: protein expressed by lambda-gt 11 clone, plaque lift
# Procedure: as §1
# [3] = Two dimensional gel electrophoresis of ryegrass pollen proteins (pI); assay type: physicochemical, Lolium perenne; conditions: allergen spot on two dimensional gel
# Procedure: (§2) Two dimensional (2D)-PAGE was performed in a mini-Protean II 2-D cell (Biorad, Richmond, Calif.) according to the manufacturer instructions. The proteins were diluted 1:1 in 4% CHAPS. […] The first dimension gel was run for 3.5 hours. The econd dimension gel was run for 45 minutes. Proteins on 2D-PAGE gels were silver stained to reveal the protein profile.
# [4] = system: IgE affinity purified from recombinant allergens and IgE from whole serum of allergic individuals; assay: Two-dimensional Western blot: IgE binding to allergens; parameters: species or system human; conditions: IgE preparations that bind: AP12R, AP13R, AP19R = affinity purified from recombinant Lol p Ib.1 fragment IH, Lol p Ia clone 13R, Lol p Ib.2; TIgE = whole serum
# Text: Serum used in the experiment to identify allergen regions of Lol p Ia and Lol p Ib was collected by Dr. R. Phomley at the Epworth Hospital (Richmond, Australia) from patients with a history of allergy to ryegrass pollen and a positive skin test to ryegrass pollen extract. IgE was affinity-purified from recombinant allergens as previously described (Singh, et al., (1991) Proc. Nat'l Acad. Sci. USA, […]; Example 2) except recombinant proteins were derived from lambda-gt11 culture rather than pGEX cultures.
# as §2
# Conditions for electrophoresis and Western blotting and for the processing of Western blots with MAbs and IgE were as described by Singh, et al., (1985) Int. Arch. Allergy Appl. Immun., 78:300.
# [5] = system: human IgE of individual sera; assay: Peptide dot blot immunoassay: human IgE; assay type: binding; conditions: for IgE Binding (symbol): sera diluted 1:4
# Procedure: (§3) The peptides were dissolved in water to give a 1.6 mM stock solution. Insoluble peptides were dissolved by sonication (Branson Sonifier 450, USA) for 1 minute.
# (§4) The peptides were immobilized onto nitrocellulose (NC) filter by using a modified method published elsewhere (Sithigonglu (1991) J. Immunol. Methods, 141:23-32). Two μl of the peptide stock solutions were spotted on the NC filter (Schleicher & Schuell, W. Germany) about 1 cm apart. After the strips were dried and baked at 80° C. for one hour, they were fixed by exposure, in a tightly sealed plastic box, to vapor from 0.2% glutaraldehyde in PBS at room temperature (18° C.) for one hour. After washing thoroughly with distilled water, the NC filters were blocked with Blotto (10% non-fat dry milk in PBS) for two hours and washed in 1×Tween-PBS (0.1% Tween-20 in PBS) and 2×PBS, five minutes each.
# (§5) The peptides were then screened for human IgE and mouse/rabbit IgG epitopes with individual sera (diluted 1:4 in PBS with 0.5% BSA), MAbs FMC A7 (Smart et al. (1983) Int. Arch. Allergy Clin. Immunol. 72: 243) and polyclonal rabbit anti-Lol p Ib antibody. The rabbit anti-sera was a gift from Dr. Jenny Roland, Alfred Hospital, Melbourne, Australia.
# (§6) The intensity of each dot blot was measured by densitometer (Pharmacia LKB UltraScan XL, Sweden). Densitometric values greater than two were considered as positive binding in comparison to the background. For every peptide, the sera and antibody values have been added (score/peptide) and divided by the number of positive sera to express the final value as an average (score/sera). Sera C1 and C2 were not grass allergic and were used as negative controls. C refers to crude ryegrass pollen extract (1 μg/dot) as positive control.
# [6] = system: Mab FMC-A7 and rabbit polyclonal anti-Lol p Ib antiserum; assay: Peptide dot blot immunoassay: mouse/rabbit IgG; assay type: binding
# Procedure: as §3, §4, §5, §6
# [7] = system: MAb 12.3; assay: Antibody screening of lambda-gt 11 cDNA clones: binding of MAb 12.3; parameters: key to Binding of MAb 12.3: ++: strongest binding; -: no binding; conditions: protein expressed by lambda-gt 11 clone in E. coli Y1090, plaque lift
# Procedure: as §1
Sequence,Binding of MAb 40.1 [1],Binding of MAb 12.3 [7],Binding of IgE from sera of allergic indivs. [2],pI [3],IgE binding [4],IgE Binding (symbol) [5],Human IgE-reactivity (in words) [5],Mouse/rabbit IgG-reactivity (in words) [6]
AALTKAITAMTQA [Peptide 29],,,,,,+ (Densitometric values greater than two were considered as positive binding),,
AATPAAAGGKAT [Peptide 3],++,,-,6.45,AP13R TIgE,,,
AMTQAQKAGKPA [Peptide 30],,,,,,+ (Densitometric values greater than two were considered as positive binding),highest human IgE-reactivity,
ATAANAAPTNDK [Peptide 21],,,,,,+ (Densitometric values greater than two were considered as positive binding),highest human IgE-reactivity,
ESAFNKALNECT [Peptide 23],,,,,,+ (Densitometric values greater than two were considered as positive binding),highest human IgE-reactivity,highest mouse/rabbit IgG-reactivity
ETYKFIPSLEAA [Peptide 25],,,,,,+ (Densitometric values greater than two were considered as positive binding),,
EVKYAVFEAALT [Peptide 28],,,,,,,,highest mouse/rabbit IgG-reactivity
GAATAAAGGYKA [Peptide 34],,,,,,+ (Densitometric values greater than two were considered as positive binding),highest human IgE-reactivity,
GELQIVDKIDAA [Peptide 19],,,,,,+ (Densitometric values greater than two were considered as positive binding),highest human IgE-reactivity,highest mouse/rabbit IgG-reactivity
GFKAAVAAAANA [Peptide 6],++,,-,6.45,"AP12R,AP19R and TIgE",+ (Densitometric values greater than two were considered as positive binding),,
NECTGGAYETYK [Peptide 24],,,,,,+ (Densitometric values greater than two were considered as positive binding),,highest mouse/rabbit IgG-reactivity
YAATVAAPEVKY [Peptide 27],,,,,,+ (Densitometric values greater than two were considered as positive binding),,

# More lines, main results first:
Binding of MAb 40.1 [1],Binding of MAb 12.3 [7],Sequence,Binding of IgE from sera of allergic indivs. [2],pI [3],IgE binding [4],IgE Binding (symbol) [5],Human IgE-reactivity (in words) [5],Mouse/rabbit IgG-reactivity (in words) [6]
++,,AAATPATPAATPA [Peptide 2],-,5.9,AP13R TIgE,,,
++,,AAEGATPEAKYD [Peptide 13],,7,TIgE,+ (Densitometric values greater than two were considered as positive binding),,
++,,AANAPPADKFKI [Peptide 7],-,6,"AP12R,AP19R and TIgE",+ (Densitometric values greater than two were considered as positive binding),highest human IgE-reactivity,highest mouse/rabbit IgG-reactivity
-,-,ADAGYTPAAAAT [Peptide 1],-,5.5,AP13R TIgE,,,highest mouse/rabbit IgG-reactivity
++,++,AKYDAFVTALTE [Peptide 14],++,7.3,TIgE,,,
-,-,ALTEGLRVIAGA [Peptide 15],-,9,TIgE,,,
++,,AVKPATEEVPAA [Peptide 17],-,< 5.65,TIgE,,,
-,-,FSESSKGLLATS [Peptide 9],-,7.2,"AP12R,AP19R and TIgE",,,
++,,GKATTDEQKLLE [Peptide 4],-,7,AP13R TIgE,,,
++,,IAGALEVHAVKPA [Peptide 16],-,< 5.65,TIgE,+ (Densitometric values greater than two were considered as positive binding),highest human IgE-reactivity,
-,-,KFKIFEAAFSES [Peptide 8],-,6.45,"AP12R,AP19R and TIgE",,,
++,,KLLEDVNAGFKA [Peptide 5],-,6,"AP12R,AP19R and TIgE",+ (Densitometric values greater than two were considered as positive binding),,
-,-,LATSAAKAPGLI [Peptide 10],-,8.3,"AP12R,AP19R and TIgE",+ (Densitometric values greater than two were considered as positive binding),,
++,,PGLIPKLNTAYD [Peptide 11],-,10.6,"AP12R,AP19R and TIgE",,,
++,++,TAYDVAYKAAEG [Peptide 12],++,8.0,"AP12R,AP19R and TIgE",,,
++,++,VPAAKIPTGELQI [Peptide 18],++,,,+ (Densitometric values greater than two were considered as positive binding),,
